The results in this text go back to US3984432A, “Color photographic recording material” (priority 1973, dated 1976).

The first data set can be described thus: Absorption maximum after colour development in a photographic silver halide layer according to Use Example I. The data set is classed as physicochemical.
Details: not given
In outline:
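Coupling agent dispersed in tricresyl phosphate with gelatine at pH 6.5, mixed with silver bromide emulsion and hardener, cast on glass plates and dried at 32° C. Strips exposed to 500 Lux/cm^2 under a step wedge for 2 seconds, then processed at 24° C; absorption maximum read after colour development.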
Consider `CCCCOP(=O)(CCCOc1cc(OCCCP(=O)(OCCCC)OCCCC)cc(C(=O)Nc2cccc(NC(=O)CC(=O)C(C)(C)C)c2)c1)OCCCC` [(115)], for which the “Abs.max. (single maximum)” value came to 435 nm.

On to `COc1ccc(C(=O)CC(=O)Nc2ccc(OP(=O)(Oc3ccccc3)C(C)(C)C)cc2)cc1` (stereo not drawn) [(130)], for which the “Abs.max. (single maximum)” value was found to be 437 nm.

For `CCCCOP(=O)(CCCOc1cc(OCCCP(=O)(OCCCC)OCCCC)cc(C(=O)Nc2ccc(C)c(NC(=O)CC(=O)C(C)(C)C)c2)c1)OCCCC` [(117)], the “Abs.max. (single maximum)” value turned out to be 445 nm.

In the case of `CC(C)CCOP(=O)(CCCc1ccc(NC(=O)CC(=O)c2ccc(Cl)cc2)cc1)OCCC(C)C` [(132)], the “Abs.max. (single maximum)” value is recorded as 438 nm.

Consider `CCCCOP(=O)(CCCOc1cc(OCCCP(=O)(OCCCC)OCCCC)cc(C(=O)Nc2cc(Cl)c(C)c(Cl)c2O)c1)OCCCC` [(701)], for which the “Abs.max. (single maximum)” value is on record as 662 nm.

For `CCOP(=O)(CCCOc1cccc(C(=O)Nc2cccc(C(=O)CC(=O)Nc3cc(C)ccc3OC)c2)c1)OCC` [(112)], the “Abs.max. (single maximum)” value was determined as 440 nm.

On to `CC(C)OP(=O)(OC(C)C)C1(C)CC(NC(=O)c2ccc(Oc3ccccc3)c(NC(=O)CC(=O)c3ccc(Cl)cc3)c2)CC(C)(C)C1` (stereo not drawn) [(144)], for which the “Abs.max. (single maximum)” value is on record as 441 nm.

On to `CC(C)OP(=O)(OC(C)C)C1(C)CC(NC(=O)c2ccc(Cl)c(NC(=O)CC(=O)c3ccc(C(C)(C)C)cc3)c2)CC(C)(C)C1` (stereo not drawn) [(140)], for which the “Abs.max. (single maximum)” value came to 439 nm.

Take `CCCCOP(=O)(CCCOc1cc(OCCCP(=O)(OCCCC)OCCCC)cc(C(=O)Nc2ccc(NC(=O)CC(=O)C(C)(C)C)cc2)c1)OCCCC` [(114)]: the “Abs.max. (single maximum)” value came out at 431 nm.

Staying with this data set, now noted: pyrazolone coupling agents.
In the case of `CCCCOP(=O)(CCCOc1cc(OCCCP(=O)(OCCCC)OCCCC)cc(C(=O)Nc2cccc(NC(=O)NC3=NN(c4c(Cl)cc(Cl)cc4Cl)C(=O)C3)c2)c1)OCCCC` [(273)], the “Abs.max., first of two maxima (subsidiary maximum)” value (“Abs.max., first of two maxima” for short) was 430 nm and the “Abs.max., second of two maxima (absorption maximum)” value (“Abs.max., second of two maxima” below) was determined as 547 nm.

`CCOP(=O)(CCCOc1cccc(C(=O)Nc2c(C)cc(C)c(N3N=C(Nc4ccc(Cl)cc4)CC3=O)c2C)c1)OCC` [(425)]: the “Abs.max., first of two maxima” value is 430 nm and the “Abs.max., second of two maxima” value is reported as 530 nm.

As for `CCCCOP(=O)(CCCOc1cccc(NC2=NN(c3c(Cl)cc(Cl)cc3Cl)C(=O)C2)c1)OCCCC` [(409)], the “Abs.max., first of two maxima” value is recorded as 426 nm and the “Abs.max., second of two maxima” value is 530 nm.

Regarding `CCCCOP(=O)(CCCOc1cc(OCCCP(=O)(OCCCC)OCCCC)cc(C(=O)Nc2cccc(C(=O)NC3=NN(c4c(Cl)cc(OC)cc4Cl)C(=O)C3)c2)c1)OCCCC` [(266)], the “Abs.max., first of two maxima” value is 436 nm and the “Abs.max., second of two maxima” value worked out at 540 nm.

Regarding `CCCCOP(=O)(CCCOc1cccc(C(=O)Nc2cccc(NC3=NN(c4ccc(S(C)(=O)=O)cc4)C(=O)C3)c2)c1)OCCCC` [(429)], the “Abs.max., first of two maxima” value is reported as 430 nm and the “Abs.max., second of two maxima” value was found to be 538 nm.

Regarding `CCCCOP(=O)(CCCOc1cc(OCCCP(=O)(OCCCC)OCCCC)cc(C(=O)NC2=NN(c3c(Cl)cc(Cl)cc3Cl)C(=O)C2)c1)OCCCC` [(221)], the “Abs.max., first of two maxima” value turned out to be 436 nm and the “Abs.max., second of two maxima” value is reported as 538 nm.

In the case of `CCCCOP(=O)(CCCOc1cc(OCCCP(=O)(OCCCC)OCCCC)cc(C(=O)Nc2ccc(C(=O)NC3=NN(c4c(Cl)cc(Cl)cc4Cl)C(=O)C3)cc2)c1)OCCCC` [(218)], the “Abs.max., first of two maxima” value turned out to be 436 nm and the “Abs.max., second of two maxima” value is 542 nm.

Consider `CCOP(=O)(CCCOc1cccc(C(=O)Nc2ccc(NC3=NN(c4ccccc4)C(=O)C3)cc2)c1)OCC` [(416)], for which the “Abs.max., first of two maxima” value came to 426 nm and the “Abs.max., second of two maxima” value is on record as 528 nm.

Regarding `CCCCC(CC)COP(=O)(CCCOc1cccc(C(=O)Nc2cccc(C(=O)NC3=NN(c4ccccc4)C(=O)C3)c2)c1)OCC(CC)CCCC` (stereo not drawn) [(225)], the “Abs.max., first of two maxima” value was 440 nm and the “Abs.max., second of two maxima” value was 532 nm.

As to `CCCCC(CC)COP(=O)(CCCOc1cccc(C(=O)Nc2cccc(C(=O)NC3=NN(c4c(Cl)cc(Cl)cc4Cl)C(=O)C3)c2)c1)OCC(CC)CCCC` (stereo not drawn) [(219)], the “Abs.max., first of two maxima” value came to 436 nm and the “Abs.max., second of two maxima” value stood at 542 nm.

Take `CCCCC(CC)COP(=O)(CCCOc1ccc(C(=O)Nc2cccc(C(=O)NC3=NN(c4c(Cl)cc(Cl)cc4Cl)C(=O)C3)c2)c(OCCCP(=O)(OCC(CC)CCCC)OCC(CC)CCCC)c1)OCC(CC)CCCC` (stereo not drawn) [(251)]: the “Abs.max., first of two maxima” value was found to be 436 nm and the “Abs.max., second of two maxima” value was 540 nm.

As to `CC(C)OP(=O)(CCCCCOc1cc(OCCCCCP(=O)(OC(C)C)OC(C)C)cc(C(=O)Nc2cccc(C(=O)NC3=NN(c4ccccc4)C(=O)C3)c2)c1)OC(C)C` [(239)], the “Abs.max., first of two maxima” value is listed as 440 nm and the “Abs.max., second of two maxima” value was found to be 532 nm.

As for `CCCCOP(=O)(CCCOc1cccc(C(=O)Nc2cccc(C(=O)NC3=NN(c4ccc(S(C)(=O)=O)cc4)C(=O)C3)c2)c1)OCCCC` [(275)], the “Abs.max., first of two maxima” value turned out to be 440 nm and the “Abs.max., second of two maxima” value stood at 538 nm.

Consider `CCCCOP(=O)(CCCOc1cccc(C(=O)Nc2c(C)cc(C)c(N3N=C(Nc4ccc(Cl)cc4)CC3=O)c2C)c1)OCCCC` [(426)], for which the “Abs.max., first of two maxima” value was 430 nm and the “Abs.max., second of two maxima” value amounted to 528 nm.

With `CC(C)OP(=O)(CCCCCOc1cc(OCCCCCP(=O)(OC(C)C)OC(C)C)cc(C(=O)Nc2cccc(C(=O)NC3=NN(c4c(Cl)cc(Cl)cc4Cl)C(=O)C3)c2)c1)OC(C)C` [(243)], the “Abs.max., first of two maxima” value came to 434 nm and the “Abs.max., second of two maxima” value came out at 544 nm.

On to `CCOP(=O)(CCCOc1cccc(NC2=NN(c3ccccc3)C(=O)C2)c1)OCC` [(401)], for which the “Abs.max., first of two maxima” value amounted to 429 nm and the “Abs.max., second of two maxima” value amounted to 524 nm.

Regarding `CCOP(=O)(CCCOc1cccc(NC2=NN(c3cccc(Cl)c3)C(=O)C2)c1)OCC` [(402)], the “Abs.max., first of two maxima” value is 430 nm and the “Abs.max., second of two maxima” value was found to be 534 nm.

Consider `CCOP(=O)(CCCOc1ccc(NC2=NN(c3cccc(Cl)c3)C(=O)C2)cc1)OCC` [(406)], for which the “Abs.max., first of two maxima” value is on record as 425 nm and the “Abs.max., second of two maxima” value is recorded as 530 nm.

Turning to `CCCCOP(=O)(CCCOc1cc(OCCCP(=O)(OCCCC)OCCCC)cc(C(=O)Nc2cccc(C(=O)NC3=NN(c4ccccc4)C(=O)C3)c2)c1)OCCCC` [(229)], the “Abs.max., first of two maxima” value was found to be 440 nm and the “Abs.max., second of two maxima” value turned out to be 532 nm.

`CCCCOP(=O)(CCCOc1cccc(C(=O)Nc2ccc(NC3=NN(c4ccccc4)C(=O)C3)cc2)c1)OCCCC` [(417)]: the “Abs.max., first of two maxima” value turned out to be 428 nm and the “Abs.max., second of two maxima” value is reported as 530 nm.

`CCOP(=O)(CCCOc1cc(OCCCP(=O)(OCC)OCC)cc(C(=O)Nc2ccc(C(=O)NC3=NN(c4c(Cl)cc(Cl)cc4Cl)C(=O)C3)cc2)c1)OCC` [(208)]: the “Abs.max., first of two maxima” value is reported as 434 nm and the “Abs.max., second of two maxima” value is listed as 546 nm.
